The values below come from patent US20220332700A1, “NOVEL APOPTOSIS SIGNAL-REGULATING KINASE 1 INHIBITORS” (MANKIND PHARMA LTD, priority 2019, published 2022).

As a reminder, the IC50 is the concentration that gives 50% inhibition.

Experiment [1] deals with T1, recombinant ASK1 (Homo sapiens, UniProt Q99683).
T1 construct: purchased Carna Biosciences
Put plainly: ASK1 Biochemical Assay (HTRF KinEASE-STK S3). Put shortly:
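Recombinant ASK1 (5 ng) preincubated with compound 1 h at 23 °C in MOPS pH 7 buffer with Mg-acetate, DTT, NP40, glycerol, BSA and 1% DMSO. Inhibition calculated against vehicle after substrate-blank subtraction.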
A general note: Time-resolved FRET reads energy transfer from a long-lived donor to a nearby acceptor.

Experiment [2] deals with T2, ASK2 (Homo sapiens, UniProt O95382).
T2 construct: purchased Carna Biosciences
T2 sequence (O95382 1-1288): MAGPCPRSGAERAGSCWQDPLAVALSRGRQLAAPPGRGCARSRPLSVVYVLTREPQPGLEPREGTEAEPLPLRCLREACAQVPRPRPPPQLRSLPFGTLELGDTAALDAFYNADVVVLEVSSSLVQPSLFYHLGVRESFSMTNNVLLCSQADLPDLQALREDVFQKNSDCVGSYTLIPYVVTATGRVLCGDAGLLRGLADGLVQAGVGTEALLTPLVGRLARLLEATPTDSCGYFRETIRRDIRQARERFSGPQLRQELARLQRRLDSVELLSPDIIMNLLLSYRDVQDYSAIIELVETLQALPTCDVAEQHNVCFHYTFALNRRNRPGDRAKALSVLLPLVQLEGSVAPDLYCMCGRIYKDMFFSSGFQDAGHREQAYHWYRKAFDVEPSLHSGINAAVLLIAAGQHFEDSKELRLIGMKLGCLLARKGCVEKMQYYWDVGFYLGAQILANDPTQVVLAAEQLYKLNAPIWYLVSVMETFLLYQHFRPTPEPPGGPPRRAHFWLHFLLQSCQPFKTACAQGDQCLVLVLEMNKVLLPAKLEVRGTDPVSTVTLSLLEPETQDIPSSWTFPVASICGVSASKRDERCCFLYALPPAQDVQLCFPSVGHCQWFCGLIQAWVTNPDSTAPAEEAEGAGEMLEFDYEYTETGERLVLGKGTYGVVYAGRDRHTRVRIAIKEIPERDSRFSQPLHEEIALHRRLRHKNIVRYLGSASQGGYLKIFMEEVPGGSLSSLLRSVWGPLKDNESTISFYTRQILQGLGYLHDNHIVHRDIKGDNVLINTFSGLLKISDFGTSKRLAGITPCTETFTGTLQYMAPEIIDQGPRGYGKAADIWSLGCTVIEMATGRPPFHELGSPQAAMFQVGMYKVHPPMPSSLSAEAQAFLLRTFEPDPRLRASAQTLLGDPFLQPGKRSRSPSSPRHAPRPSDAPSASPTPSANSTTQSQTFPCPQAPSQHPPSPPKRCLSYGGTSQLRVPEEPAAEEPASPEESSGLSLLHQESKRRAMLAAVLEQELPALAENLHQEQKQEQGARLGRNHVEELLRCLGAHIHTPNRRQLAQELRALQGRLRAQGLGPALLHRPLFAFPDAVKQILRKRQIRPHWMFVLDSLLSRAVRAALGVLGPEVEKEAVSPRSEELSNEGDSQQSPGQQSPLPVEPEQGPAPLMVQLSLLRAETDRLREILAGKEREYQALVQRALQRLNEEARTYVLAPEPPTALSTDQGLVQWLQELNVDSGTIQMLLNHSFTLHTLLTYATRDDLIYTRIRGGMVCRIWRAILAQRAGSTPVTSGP
As to the kind of experiment: ASK2 biochemical assay (selectivity assay). The note with it: ATP 100 μM. On the procedure: ASK2 assay was performed to evaluate above mentioned example for its selectivity towards ASK1 with respect ASK 2.
ASK2 biochemical assay was standardized using ASK2 (Carna Biosciences), MBP biotin conjugate (Merk life science), ATP, streptavidin surelight APC (PerkinElmer) and Lance Eu-W1024-antiphospho threonine (PerkinElmer). Enzyme concentration, ATP, MBP biotin conjugate and antibodies were titrated for enzyme assay. Assay was carried out in freshly prepared ASK2 kinase buffer, 5 mM MOPS pH-7.2, 2.5 mM β-glycerophosphate, 5 mM magnesium chloride (MgCl2), 1 mM EGTA, 0.4 mM EDTA, 0.05 mM DTT and 0.05% BSA. DMSO was used as vehicle control with a final concentration of 1%. A 40 ng of ASK2 enzyme was incubated with compound for 1 hour at 23° C. on a shaker at 100rpm. ATP and MBP biotin conjugate (as substrate) was added at a final concentration of 100 μM and 0.1mg/ml respectively and incubated for 3 hours at 23° C. on a shaker at 100rpm. Detection reagents streptavidin surelight APC (55.56nM), lance Eu-W1024-antiphospho threonine antibody (1.11nM) and 1X lance detection buffer were added and incubated for 2 hour at room temperature on a shaker at 100rpm. Delta F ratios were calculated from data obtained at excitation (337 nm) and emission wavelengths (665 nm and 620-10 nm). Substrate blank values were considered as negative control. Values from negative control were subtracted from vehicle control and compound treated wells. Enzyme inhibition by compounds was calculated from vehicle controls, which represent uninterrupted enzyme's activity.

Experiment [3] deals with Male C57BL/6 mice. As to the kind of experiment: Mouse model of Acetaminophen (APAP) induced Hepatotoxicity. It is filed as in vivo. The note with it: l0mpk and 30mpk; APAP 300 mg/kg i.p.; 6h post APAP; dose dependent, comparable with selonsertib. Here is the method:
Male C57BL/6 mice, 20 to 24 grams body weight at the time of study initiation, were acclimatized at least for 1-3 days prior to experiment initiation. Based on body weight, animal were randomized to different groups and kept for overnight fasting. Animals were treated with test compounds and vehicle for control group. After 30 minutes, APAP (300 mg/kg) was administered by intraperitoneal route (i.p). A vehicle control group was also included in the study as a vehicle control for test compound as well as APAP. All animals were bled 6h post APAP administration from the retro-orbital plexus into appropriately labeled tubes. Serum ALT levels were measured in all groups.

Where [4] appears, read: ATP 100 μM, read-out: Biochemical Assay IC50.
[5] abbreviates: comparison with Selonsertib, read-out: ASK1 biochemical Assay (IC50).
Setting [6] is: selectivity table, read-out: ASK1 Biochemical Assay IC50.

Where two headings read alike, the source gives them in different places. A value given as a limit tells only on which side of the number the result lay.

T1 sequence (Q99683 654-971 limits assumed): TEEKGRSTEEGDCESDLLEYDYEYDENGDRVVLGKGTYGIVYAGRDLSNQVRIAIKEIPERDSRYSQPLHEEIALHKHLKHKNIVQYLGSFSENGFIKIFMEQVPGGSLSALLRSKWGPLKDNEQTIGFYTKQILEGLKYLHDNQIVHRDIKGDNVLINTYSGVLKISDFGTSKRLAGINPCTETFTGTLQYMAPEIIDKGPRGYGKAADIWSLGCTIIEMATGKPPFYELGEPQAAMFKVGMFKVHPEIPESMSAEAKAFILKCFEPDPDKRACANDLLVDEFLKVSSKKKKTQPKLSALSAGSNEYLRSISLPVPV

As for `CC(C)n1cnnc1-c1cccc(N2CCN(c3ccc(N4CCOCC4)cc3)C2=O)n1` [Example 1043, 1-(6-(4-isopropyl-4H-1,2,4-triazol-3-yl)pyridin-2-yl)-3-(4-morpholinophenyl)imidazolidin-2-one], the half-maximal inhibitory concentration (IC50) is under 100 nM in experiment [1] (setting [4]), 4.1 nM in experiment [1] (setting [5]), 4.1 nM in experiment [1] (setting [6]) and over 10000 nM in experiment [2]. Also, the “reduction in serum ALT levels compared to vehicle” value (shortened to “reduction in serum ALT levels”) in experiment [3] is recorded as “significant reduction”.
With `CC(C)n1cnnc1-c1cccc(N2CCN(c3ccc(N4CC(C#N)C4)cc3)C2=O)n1` [Example 1071, 1-(4-(3-(6-(4-isopropyl-4H-1,2,4-triazol-3-yl)pyridin-2-yl)-2-oxoimidazolidin-1-yl)phenyl)azetidine-3-carbonitrile], the concentration for half-maximal inhibition (IC50) was under 100 nM in experiment [1] (setting [4]), 3.8 nM in experiment [1] (setting [5]), 3.8 nM in experiment [1] (setting [6]) and over 10000 nM in experiment [2]. Besides, in experiment [3], the “reduction in serum ALT levels” value is given as “significant reduction”.
Regarding `CNC(=O)C1CCN(c2ccc(N3CCN(c4cccc(-c5nncn5C(C)C)n4)C3=O)cc2)CC1` [Example 1082, 1-(4-(3-(6-(4-isopropyl-4H-1,2,4-triazol-3-yl)pyridin-2-yl)-2-oxoimidazolidin-1-yl)phenyl)-N-methylpiperidine-4-carboxamide], the 50% inhibitory concentration (IC50) in experiment [1] (setting [4]) was under 50 nM; in experiment [1] (setting [5]), 1 nM; in experiment [1] (setting [6]), 1 nM; in experiment [2] it was 8500 nM. The “reduction in serum ALT levels” value in experiment [3] was “significant reduction”.
`CC(C)n1cnnc1-c1cccc(N2CCN(c3ccc(N4CCC(C(=O)N(C)C)CC4)cc3)C2=O)n1` [Example 1097, 1-(4-(3-(6-(4-isopropyl-4H-1,2,4-triazol-3-yl)pyridin-2-yl)-2-oxoimidazolidin-1-yl)phenyl)-N,N-dimethylpiperidine-4-carboxamide]: the 50% inhibitory concentration (IC50) in experiment [1] (setting [4]) is under 50 nM; in experiment [1] (setting [5]), 3.8 nM; in experiment [1] (setting [6]), 3.8 nM; in experiment [2] it was 7900 nM. In addition, the “reduction in serum ALT levels” value in experiment [3] is “significant reduction”.
